Activity calls are given as the source filed them.
How the values were obtained:
[1] = molecular target: Cytochrome P450 3A4 (Homo sapiens, UniProt P08684);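 also: CYP3A4 tested as one member of a cytochrome P450 panel screen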
[2] = molecular target: Cytochrome P450 2D6 (Homo sapiens, UniProt P10635);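 also: CYP2D6 member of a cytochrome P450 panel assay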
[3] = Luminescence Cell-Based Dose Retest to Confirm Inhibitors of Cancer Stem Cells. [Related pubchem assays (depositor defined):AID2717, AID2721]; format: functional; settings: Homo sapiens
[4] = molecular target: Cytochrome P450 2C19 (Homo sapiens, UniProt P33261); assay: Cytochrome panel assay with activity outcomes. Panel member name: p450-cyp2c19 Compounds with AC50 equal or less than 10 uM are considered active; format: functional; settings: read-out: AC50
Chain of Cytochrome P450 2C19 (P33261 whole entry): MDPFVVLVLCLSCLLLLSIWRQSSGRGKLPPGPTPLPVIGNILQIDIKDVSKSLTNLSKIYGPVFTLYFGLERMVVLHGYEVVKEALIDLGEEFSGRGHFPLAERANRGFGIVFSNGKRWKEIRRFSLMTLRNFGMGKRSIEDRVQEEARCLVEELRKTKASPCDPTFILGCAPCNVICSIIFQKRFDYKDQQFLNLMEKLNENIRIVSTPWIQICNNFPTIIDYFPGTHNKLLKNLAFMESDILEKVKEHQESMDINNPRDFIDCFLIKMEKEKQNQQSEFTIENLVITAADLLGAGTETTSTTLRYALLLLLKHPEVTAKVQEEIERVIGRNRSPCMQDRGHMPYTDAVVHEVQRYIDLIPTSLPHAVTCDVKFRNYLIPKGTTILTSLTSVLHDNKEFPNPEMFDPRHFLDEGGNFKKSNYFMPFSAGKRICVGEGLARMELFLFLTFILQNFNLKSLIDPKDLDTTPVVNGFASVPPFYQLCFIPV

[5] = molecular target: Cytochrome P450 2C9 (Homo sapiens, UniProt P11712)
Chain of Cytochrome P450 2C9 (P11712 whole entry): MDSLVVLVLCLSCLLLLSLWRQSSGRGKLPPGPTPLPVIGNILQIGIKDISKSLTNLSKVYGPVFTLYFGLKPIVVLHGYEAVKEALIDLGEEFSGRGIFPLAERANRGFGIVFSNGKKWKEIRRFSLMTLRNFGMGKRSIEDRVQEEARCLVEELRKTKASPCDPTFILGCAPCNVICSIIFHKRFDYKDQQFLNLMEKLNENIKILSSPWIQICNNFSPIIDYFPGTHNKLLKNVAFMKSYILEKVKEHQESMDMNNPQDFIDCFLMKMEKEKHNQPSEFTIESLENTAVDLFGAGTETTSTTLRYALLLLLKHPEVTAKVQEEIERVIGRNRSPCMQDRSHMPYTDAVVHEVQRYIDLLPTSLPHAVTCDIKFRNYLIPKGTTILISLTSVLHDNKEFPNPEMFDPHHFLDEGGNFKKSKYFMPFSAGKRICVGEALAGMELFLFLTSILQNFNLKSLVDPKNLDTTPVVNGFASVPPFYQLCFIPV

[6] = molecular target: T1, Cytochrome P450 1A2 (Homo sapiens, UniProt P05177);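 also: PubChem cytochrome P450 panel assay, CYP1A2 panel member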
T1 sequence (P05177 whole entry): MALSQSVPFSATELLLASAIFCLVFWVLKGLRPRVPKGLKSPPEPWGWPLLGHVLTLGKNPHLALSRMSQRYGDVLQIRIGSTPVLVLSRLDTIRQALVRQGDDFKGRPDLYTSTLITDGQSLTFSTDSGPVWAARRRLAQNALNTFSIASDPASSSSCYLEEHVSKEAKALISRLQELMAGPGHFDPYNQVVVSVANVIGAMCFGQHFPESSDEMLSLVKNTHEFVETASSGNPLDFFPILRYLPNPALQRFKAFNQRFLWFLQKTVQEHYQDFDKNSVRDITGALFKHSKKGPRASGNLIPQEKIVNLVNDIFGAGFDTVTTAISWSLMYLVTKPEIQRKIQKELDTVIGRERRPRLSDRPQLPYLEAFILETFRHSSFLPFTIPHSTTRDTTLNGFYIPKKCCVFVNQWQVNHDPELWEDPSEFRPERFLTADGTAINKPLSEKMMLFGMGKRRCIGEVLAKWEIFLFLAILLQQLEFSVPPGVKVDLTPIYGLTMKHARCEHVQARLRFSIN

[7] = molecular target: T2, Heat shock factor protein 1 (Mus musculus, UniProt P38532); assay: decrease of HSF1-responsive luciferase luminescence – cell-based, NIH3T3, dose retest, confirmation (AID 2382); format: functional;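 also: NIH3T3 fibroblasts with HSF1-driven luciferase reporter stressed by proteasome inhibitor MG132; luminescence from HSF1-driven luciferase expression after 8 hours of MG132 stress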
T2 sequence (P38532 whole entry): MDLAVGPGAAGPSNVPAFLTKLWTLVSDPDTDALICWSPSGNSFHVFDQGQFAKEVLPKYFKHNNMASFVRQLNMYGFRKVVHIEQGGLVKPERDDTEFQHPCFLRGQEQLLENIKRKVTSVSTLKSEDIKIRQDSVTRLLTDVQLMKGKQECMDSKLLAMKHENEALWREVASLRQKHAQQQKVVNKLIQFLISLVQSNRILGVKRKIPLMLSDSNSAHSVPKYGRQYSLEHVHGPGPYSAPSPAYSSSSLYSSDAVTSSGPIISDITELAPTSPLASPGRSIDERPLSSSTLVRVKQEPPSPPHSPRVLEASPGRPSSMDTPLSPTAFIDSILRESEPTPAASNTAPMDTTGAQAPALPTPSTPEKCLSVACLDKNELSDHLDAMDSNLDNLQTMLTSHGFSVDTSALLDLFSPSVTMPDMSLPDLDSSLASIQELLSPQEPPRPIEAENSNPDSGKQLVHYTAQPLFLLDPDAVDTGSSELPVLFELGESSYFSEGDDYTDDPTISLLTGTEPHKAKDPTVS

[8] = molecular target: T3, Streptokinase A (Streptococcus pyogenes serotype M1, UniProt P10520); assay: viability-normalized secreted streptokinase activity reduction – plasminogen activation absorbance, OD405, dose response (AID 1914); format: functional, Streptococcus pyogenes M1 GAS;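 also: secreted streptokinase activity via plasminogen activation per viability signal from cell pellet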
T3 sequence (P10520 whole entry): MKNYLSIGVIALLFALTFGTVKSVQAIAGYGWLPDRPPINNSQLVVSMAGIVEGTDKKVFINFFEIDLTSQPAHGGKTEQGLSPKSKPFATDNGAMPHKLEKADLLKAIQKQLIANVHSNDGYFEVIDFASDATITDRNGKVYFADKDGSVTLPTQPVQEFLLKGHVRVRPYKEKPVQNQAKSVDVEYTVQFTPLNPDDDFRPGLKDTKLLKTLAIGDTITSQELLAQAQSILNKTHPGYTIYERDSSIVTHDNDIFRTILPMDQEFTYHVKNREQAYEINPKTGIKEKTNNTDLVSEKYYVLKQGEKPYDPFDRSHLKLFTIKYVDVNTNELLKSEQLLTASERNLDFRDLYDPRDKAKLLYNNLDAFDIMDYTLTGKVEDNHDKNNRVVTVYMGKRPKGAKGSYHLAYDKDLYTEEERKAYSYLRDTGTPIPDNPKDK

[9] = test system: Streptococcus; assay: GAS UMAA2166 growth inhibition – luminescence, BacTiterGlo, counter-screen for streptokinase expression inhibitor project, dose response (AID 1915); format: functional, organism-based;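 also: potency for reduction of bacterial viability or growth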
[10] = test system: Streptococcus sp. 'group A'; assay: Streptococcus pyogenes SK(-)GAS viability under kanamycin – luminescence, BacTiterGlo, confirmation, counter-screen for streptokinase expression inhibitor project, dose response (AID 1900); format: functional, organism-based

Chain of Cytochrome P450 2D6 (P10635 whole entry): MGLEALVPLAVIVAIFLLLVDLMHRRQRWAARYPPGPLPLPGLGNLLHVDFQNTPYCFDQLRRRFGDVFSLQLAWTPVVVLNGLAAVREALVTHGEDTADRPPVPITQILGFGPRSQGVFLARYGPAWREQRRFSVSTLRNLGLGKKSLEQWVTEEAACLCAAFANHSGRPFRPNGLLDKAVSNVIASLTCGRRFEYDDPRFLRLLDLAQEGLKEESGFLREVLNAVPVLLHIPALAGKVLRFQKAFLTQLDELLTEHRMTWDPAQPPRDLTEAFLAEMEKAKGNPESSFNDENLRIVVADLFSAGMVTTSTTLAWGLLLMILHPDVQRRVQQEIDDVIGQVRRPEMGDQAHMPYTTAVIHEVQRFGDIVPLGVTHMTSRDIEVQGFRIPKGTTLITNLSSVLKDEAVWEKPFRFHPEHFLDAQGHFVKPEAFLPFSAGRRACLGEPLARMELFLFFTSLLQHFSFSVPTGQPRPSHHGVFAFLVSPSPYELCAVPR
Chain of Cytochrome P450 3A4 (P08684 whole entry): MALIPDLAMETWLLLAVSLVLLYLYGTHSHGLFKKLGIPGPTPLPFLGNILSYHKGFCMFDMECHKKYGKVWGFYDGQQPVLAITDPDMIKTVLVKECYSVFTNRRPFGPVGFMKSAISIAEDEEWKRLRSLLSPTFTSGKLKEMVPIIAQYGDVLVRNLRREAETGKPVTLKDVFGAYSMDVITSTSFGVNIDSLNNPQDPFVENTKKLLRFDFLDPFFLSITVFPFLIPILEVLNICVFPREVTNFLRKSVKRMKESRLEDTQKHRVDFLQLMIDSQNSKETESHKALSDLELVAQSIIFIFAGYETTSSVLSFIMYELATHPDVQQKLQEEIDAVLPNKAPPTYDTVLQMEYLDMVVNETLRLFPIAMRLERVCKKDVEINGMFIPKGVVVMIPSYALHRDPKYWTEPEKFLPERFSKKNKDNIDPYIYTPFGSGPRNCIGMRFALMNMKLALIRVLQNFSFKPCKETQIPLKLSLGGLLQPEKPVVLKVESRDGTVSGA

Cc1ccccc1NS(=O)(=O)c1ccc2ncc(C(=O)N(C)Cc3ccco3)c(O)c2c1
AC50 [1]: 0.794 µM (inconclusive) | AC50 [2]: 17.8 µM (inconclusive)

COc1ccccc1-c1nccc(NCc2cnc(C)cn2)n1
AC50 [1]: 39.8 µM (inconclusive)

COc1ccc(/C=C2\C(=O)c3ccccc3OC2c2ccccc2)cc1 (stereo not drawn)
AC50 [3]: 1.12 µM (active)

CCC12C=CCN3CCC4(c5cc(Br)c(OC)cc5N(C)C4C(O)(C(=O)OC)C1OC(C)=O)C32 (stereo not drawn)
AC50 [1]: 39.8 µM (inconclusive) | AC50 [4]: 11.2 µM (inconclusive) | AC50 [5]: 22.4 µM (inconclusive)

Oc1c(C(O)(c2ccccc2)c2ccc3ccccc3c2O)ccc2ccccc12
AC50 [6]: 1 µM (inconclusive) | AC50 [2]: 3.98 µM (inconclusive)

O=C(Nc1ccc(Cl)cc1C(=O)c1ccccc1)c1ccco1
AC50 [1]: 22.4 µM (inconclusive) | AC50 [5]: 3.98 µM (inconclusive)

CCCCOC(=O)CSCC(=O)Nc1cc(C)on1
EC50 [7]: > 195 µM (not active) | AC50 [5]: 2.51 µM (inconclusive) | AC50 [6]: 25.1 µM (inconclusive)

NC(=O)c1cc(C(=O)Cc2ccccc2)c[nH]1
EC50 [8]: 107 µM (active) | EC50 [9]: > 150 µM (not active) | EC50 [10]: 2.27 µM (active)

COC(=O)c1ccc(CN(c2ccc(C(=O)O)c(O)c2)S(=O)(=O)c2ccc(Cl)c([N+](=O)[O-])c2)cc1
AC50 [3]: 4.38 µM (active) | EC50 [9]: 5.96 µM (active) | EC50 [10]: 1.48 µM (active)

NNC(=O)c1nn(-c2ccc(Cl)cc2)ccc1=O
AC50 [1]: 25.1 µM (inconclusive)

C[C@]1(C2CCCC2)Cc2cc(OCC(=O)O)c(Cl)c(Cl)c2C1=O
AC50 [1]: 12.6 µM (inconclusive) | AC50 [5]: 39.8 µM (inconclusive)

OCCCNc1nc(-c2ccccc2)c2cc(Br)ccc2n1
AC50 [3]: 24 µM (active)

Cc1cc2nc(CSc3ccccc3)cc(O)n2n1
EC50 [8]: > 150 µM (not active)

Cc1ccc(/N=C/c2cc(C)n(C3CCCC3)c2C)cc1
AC50 [1]: 20 µM (inconclusive)

COc1ccc(-c2cc([C@H]3[C@@H]4C=CCC[C@@]4(C)C(=O)N3Cc3ccccc3)ccc2F)cc1OC
AC50 [3]: 3.92 µM (active)

O=C1[C@H]2[C@H]3[C@H](O)[C@H](O)C/C(=N/OC[C@@H](O)COCc4ccco4)[C@H]3CC[C@@H]2C(=O)N1C1CCCCC1
AC50 [1]: 3.98 µM (inconclusive)

COc1ccc(NC(=O)CSc2nncn2C)c([N+](=O)[O-])c1
AC50 [1]: 22.4 µM (inconclusive) | AC50 [5]: 14.1 µM (inconclusive)

Cn1c(OCc2ccc3c(c2)OCO3)nc2c1c(=O)n(Cc1ccc(Cl)c(Cl)c1)c(=O)n2C
AC50 [6]: 14.1 µM (inconclusive)

CCNc1ncc2nc(-c3ccc(Cl)cc3)c(=O)n(-c3ccccc3)c2n1
AC50 [6]: 1 µM (inconclusive)

COc1ccc(/C=N/NC(=O)CCc2ccccc2)cc1O
AC50 [1]: 22.4 µM (inconclusive) | AC50 [4]: 15.8 µM (inconclusive)

CO/N=C/C(=C\Nc1ccccc1)c1ncc(C(F)(F)F)cc1Cl
AC50 [1]: 22.4 µM (inconclusive)

O=C(Nc1ccc2c(c1)OCO2)c1cc(-c2cccc(O)c2)on1
AC50 [3]: 0.715 µM (active)

COc1cccc(-c2sc3ccc(OC)cc3c2C#CC2(O)CCCCC2)c1
AC50 [3]: 3.74 µM (active)

COc1ccc(CNCC(O)(c2ccc(Cl)cc2)c2ccc(Cl)cc2)cc1
EC50 [8]: 19.7 µM (active) | EC50 [9]: 17.9 µM (active) | EC50 [10]: 3.01 µM (active)

CCOc1ccc(-c2nnc3ccc(SCC(=O)NCc4ccco4)nn23)cc1
AC50 [1]: 7.94 µM (inconclusive) | AC50 [4]: 1 µM (inconclusive) | AC50 [6]: 15.8 µM (inconclusive)

COc1cc(C(=O)NC(=S)Nc2ccc(Cc3ccncc3)cc2)cc(OC)c1OC
EC50 [8]: > 150 µM (not active) | EC50 [9]: 25 µM (active) | EC50 [10]: 2.84 µM (active)

COc1ccccc1N1CCN(C(=O)/C=C/c2c(Cl)nc3ccccn23)CC1
EC50 [8]: > 150 µM (not active) | EC50 [9]: 12.7 µM (active) | EC50 [10]: 1.25 µM (active)

Oc1nc(Nc2cccc(Cl)c2)sc1/C=C1\C=Nc2ccccc21
AC50 [3]: 1.91 µM (active)

CCCCNC(=O)c1cn(CC(C)C)c(=O)c2c1c1ccccc1n2C
EC50 [8]: > 150 µM (not active) | EC50 [9]: > 150 µM (not active) | EC50 [10]: 15.5 µM (active)

Cc1ccccc1C(=O)Oc1cccc(Nc2ncnc3ccccc23)c1
EC50 [8]: 34.6 µM (active) | EC50 [9]: > 150 µM (not active) | EC50 [10]: 5.76 µM (active)

Cc1ccc(CCN2CC(C(=O)N3CCC4(CC3)OCCO4)CC2=O)cc1 (stereo not drawn)
AC50 [1]: 17.8 µM (inconclusive) | AC50 [5]: 12.6 µM (inconclusive)

CC(=O)NCCNc1ncnc2ccc(-c3ccc(C(=O)N(C)C)cc3)cc12
AC50 [6]: 25.1 µM (inconclusive)

O=C1C2C(c3ccccc3)CC=CC2[C@H](c2ccc(C(F)(F)F)cc2)N1Cc1ccccc1 (stereo partly drawn)
AC50 [3]: 5.21 µM (active)

Cc1cccc(NC(=S)c2nc3ccccc3s2)c1
AC50 [1]: 3.98 µM (inconclusive) | AC50 [2]: 35.5 µM (inconclusive)

COC(=O)[C@@]1(Cc2ccccc2)[C@H]2c3cc(C(=O)N4CCCC4)n(Cc4c(CO)ncc(C)c4O)c3C[C@H]2CN1C(=O)c1ccccc1
AC50 [6]: 5.01 µM (inconclusive)

CN1CCN(c2ncc3nc(-c4cccs4)c(=O)n(C[C@H]4CCCO4)c3n2)CC1
AC50 [1]: 10 µM (inconclusive)

CC(=O)Nc1cccc(C(=O)OC(C(=O)c2ccc(C)c(C)c2)c2ccccc2)c1 (stereo not drawn)
AC50 [6]: 22.4 µM (inconclusive) | AC50 [2]: 17.8 µM (inconclusive)

CCCC(c1nnnn1CC1CCCO1)N1CCN(c2cc(Cl)ccc2C)CC1 (stereo not drawn)
AC50 [3]: 3.53 µM (active)

O=C(CSc1nnc(CNc2ccc(F)cc2)o1)N1c2ccccc2Sc2ccccc21
AC50 [6]: 10 µM (inconclusive)

CC1CCCC(NC(=O)C2CCN(S(=O)(=O)N3CCC4(CC3)OCCO4)CC2)C1C (stereo not drawn)
AC50 [1]: 14.1 µM (inconclusive) | AC50 [4]: 6.31 µM (inconclusive) | AC50 [5]: 39.8 µM (inconclusive)

CC(C)Sc1cc(N2CCOCC2)nc(-c2ccc(Cl)cc2)n1
AC50 [1]: 17.8 µM (inconclusive) | AC50 [4]: 11.2 µM (inconclusive) | AC50 [5]: 11.2 µM (inconclusive)

CC(C)(C)c1cc(C(=O)Nc2ccc(F)cc2)n(Cc2ccc(F)cc2)n1
EC50 [8]: 2.85 µM (active) | EC50 [9]: 10.3 µM (active) | EC50 [10]: 7.02 µM (active)

CC(C)(C)N(Cc1ccccc1)C(=O)c1cc2ccccc2o1
AC50 [3]: 0.407 µM (active)

O=C(O)[C@H]1CN(CCCP(=O)(O)O)CCN1
AC50 [6]: 39.8 µM (inconclusive)

O=C(c1ccc(CSc2ccccc2)cc1)N1CCN(c2ccccc2)CC1
AC50 [3]: 3.26 µM (active)

Cl/C(=N\c1cccc2ccccc12)N(c1ccccc1)c1ccccc1
AC50 [1]: 3.98 µM (inconclusive) | AC50 [6]: 1 µM (inconclusive)

CCc1nc(N2CCN(Cc3ccc4c(c3)OCO4)CC2)c2oc3ccccc3c2n1
AC50 [3]: 2.71 µM (active)

Reference: ChEMBL document CHEMBL1201862, “PubChem BioAssay data set” (2004)
